Measured values taken from ChEMBL document CHEMBL5727418, “Substituted imidazo[2,1-f][1,2,4]triazines, substituted imidazo[1,2-a]pyridines and substituted imidazo[1,2-b]pyridazines as PI3K-gamma inhibitors” (2019).

Tests used:
[1] = target: T1, Phosphatidylinositol 4,5-bisphosphate 3-kinase catalytic subunit delta isoform (Homo sapiens, UniProt O00329); experiment: Scintillation Proximity Assay: PI3Kδ:[γ-33P]ATP (10 mCi/mL) and Wheat Germ Agglutinin (WGA) YSi SPA Scintillation Beads was purchased from Perkin-Elmer (Waltham, Mass.). Lipid kinase substrate, D-myo-Phosphatidylinositol 4,5-bisphosphate (PtdIns(4,5)P2)D (+)-sn-1,2-di-O-octanoylglyceryl, 3-O-phospho linked (PIP2), CAS 204858-53-7, was purchased from Echelon Biosciences (Salt Lake City, Utah). PI3Kδ (p110δ/p85α) Recombinant Human Protein was purchased from Eurofins (St Charles, Mo.). ATP, MgCl2, DTT, EDTA, MOPS and CHAPS were purchased from Sigma-Aldrich (St. Louis, Mo.).The kinase reaction was conducted in polystyrene 384-well Greiner Bio-one white plate from Thermo Fisher Scientific in a final volume of 25 μL. Inhibitors were first diluted serially in DMSO and added to the plate wells before the addition of other reaction components. The final concentration of DMSO in the assay was 2%. The PI3Kδ assay was carried out at room temperature in 20 mM MOPS, pH 6.7, 10 mM MgCl2, 5 mM DTT and CHAPS 0.03%. Reactions were initiated by the addition of ATP, the final reaction mixture consisted of 20 μM PIP2, 2 μM ATP, 0.5 μCi [γ-33P] ATP, 3.4 nM PI3Kδ. Reactions were incubated for 120 min and terminated by the addition of 40 μL SPA beads suspended in quench buffer: 163 mM potassium phosphate pH 7.8, 20% glycerol, 25 mM EDTA. The final concentration of SPA beads is 1.0 mg/mL. […]
T1 sequence (O00329 whole entry): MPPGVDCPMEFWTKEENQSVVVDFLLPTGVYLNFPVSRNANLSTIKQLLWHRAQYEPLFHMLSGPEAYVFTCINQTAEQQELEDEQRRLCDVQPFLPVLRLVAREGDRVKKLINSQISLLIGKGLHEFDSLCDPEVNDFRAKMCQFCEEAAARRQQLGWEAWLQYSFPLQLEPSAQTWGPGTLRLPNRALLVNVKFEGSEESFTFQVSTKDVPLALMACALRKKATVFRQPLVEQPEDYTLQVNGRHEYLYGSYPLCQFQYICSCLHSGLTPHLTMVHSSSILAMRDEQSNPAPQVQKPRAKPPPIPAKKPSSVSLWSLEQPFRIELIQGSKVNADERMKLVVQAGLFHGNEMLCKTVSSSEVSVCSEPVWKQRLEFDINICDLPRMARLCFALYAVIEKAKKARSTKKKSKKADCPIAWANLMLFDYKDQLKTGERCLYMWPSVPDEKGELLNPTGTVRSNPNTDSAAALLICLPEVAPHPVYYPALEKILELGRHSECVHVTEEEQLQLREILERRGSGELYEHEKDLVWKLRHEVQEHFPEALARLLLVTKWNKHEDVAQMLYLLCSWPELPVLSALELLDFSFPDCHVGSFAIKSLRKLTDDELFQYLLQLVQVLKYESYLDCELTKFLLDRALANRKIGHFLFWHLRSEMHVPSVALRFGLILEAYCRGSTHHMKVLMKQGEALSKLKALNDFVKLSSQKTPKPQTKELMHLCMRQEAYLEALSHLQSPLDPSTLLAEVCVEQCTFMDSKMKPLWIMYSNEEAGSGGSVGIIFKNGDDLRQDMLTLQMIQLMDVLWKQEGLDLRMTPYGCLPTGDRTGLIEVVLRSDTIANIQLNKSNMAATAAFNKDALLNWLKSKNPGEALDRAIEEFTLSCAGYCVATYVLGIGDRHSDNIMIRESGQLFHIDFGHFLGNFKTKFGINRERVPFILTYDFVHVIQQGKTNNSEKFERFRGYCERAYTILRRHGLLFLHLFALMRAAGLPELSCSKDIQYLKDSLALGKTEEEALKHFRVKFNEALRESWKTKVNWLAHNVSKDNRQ

[2] = target: Phosphatidylinositol 4,5-bisphosphate 3-kinase catalytic subunit gamma isoform (Homo sapiens, UniProt P48736); experiment: PI3Kγ (p110γ) Recombinant Human Protein was purchased from Life technology (Grand Island, N.Y.). […] Inhibitors were first diluted serially in DMSO and added to the plate wells before the addition of other reaction components. The final concentration of DMSO in the assay was 2%. The PI3Kγ assay was carried out at room temperature in 20 mM MOPS, pH 6.7, 10 mM MgCl2, 5 mM DTT and CHAPS 0.03%. […] The final concentration of SPA beads is 1.0 mg/mL. After the plate sealing, plates were shaken overnight at room temperature and centrifuged at 1500 rpm for 10 min, the radioactivity of the product was determined by scintillation counting on Topcount (Perkin-Elmer).
Chain of Phosphatidylinositol 4,5-bisphosphate 3-kinase catalytic subunit gamma isoform (P48736 whole entry, canonical isoform): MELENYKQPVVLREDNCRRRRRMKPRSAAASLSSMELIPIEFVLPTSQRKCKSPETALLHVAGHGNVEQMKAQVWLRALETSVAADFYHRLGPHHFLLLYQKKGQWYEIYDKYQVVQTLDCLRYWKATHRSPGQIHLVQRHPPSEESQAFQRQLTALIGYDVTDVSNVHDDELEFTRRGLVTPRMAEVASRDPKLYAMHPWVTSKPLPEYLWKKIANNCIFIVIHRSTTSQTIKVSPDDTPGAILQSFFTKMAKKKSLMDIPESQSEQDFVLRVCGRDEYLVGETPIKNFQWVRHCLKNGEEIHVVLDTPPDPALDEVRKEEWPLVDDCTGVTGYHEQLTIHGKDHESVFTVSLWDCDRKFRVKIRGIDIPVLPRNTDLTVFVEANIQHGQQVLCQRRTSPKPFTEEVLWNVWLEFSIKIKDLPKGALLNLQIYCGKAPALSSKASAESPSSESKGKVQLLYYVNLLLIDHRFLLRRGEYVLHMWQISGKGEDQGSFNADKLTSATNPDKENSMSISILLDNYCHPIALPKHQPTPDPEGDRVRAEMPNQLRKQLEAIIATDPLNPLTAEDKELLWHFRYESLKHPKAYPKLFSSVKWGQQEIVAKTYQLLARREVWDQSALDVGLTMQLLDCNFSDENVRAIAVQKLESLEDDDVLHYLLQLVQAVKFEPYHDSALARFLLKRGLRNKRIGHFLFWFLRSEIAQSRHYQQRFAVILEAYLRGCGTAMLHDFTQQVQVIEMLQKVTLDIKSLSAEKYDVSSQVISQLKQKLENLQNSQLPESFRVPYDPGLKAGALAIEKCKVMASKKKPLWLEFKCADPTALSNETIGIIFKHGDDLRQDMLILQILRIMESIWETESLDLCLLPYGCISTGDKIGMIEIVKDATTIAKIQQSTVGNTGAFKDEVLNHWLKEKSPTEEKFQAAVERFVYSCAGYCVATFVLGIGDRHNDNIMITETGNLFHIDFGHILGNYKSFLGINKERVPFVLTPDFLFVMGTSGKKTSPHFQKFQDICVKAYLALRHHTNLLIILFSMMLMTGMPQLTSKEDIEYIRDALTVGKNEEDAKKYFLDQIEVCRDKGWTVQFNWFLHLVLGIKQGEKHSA

IC50 [1]: < 2 µM
IC50 [2]: < 0.5 µM
Structure (SMILES): Cc1ccc(S(=O)(=O)CC2CCC2)cc1-c1cnc2c(N)ncnn12
